Data reported in patent US20120128654A1, “Allantoin Administration for the Treatment of Neurodegenerative Disease and Neurotrauma” (UNIVERSITY OF CINCINNATI, priority 2009, published 2012).

Assays:
[1] = Oral allantoin administration, plasma allantoin levels in monkeys; type: in vivo, African green monkey
Description: To determine whether oral allantoin administration could increase plasma levels of allantoin in non-human primates, African green monkeys were fed allantoin (n=4). All monkeys were initially fed 26 mg/kg/day for 1 week, after which the allantoin concentration was increased to a level of 52 mg/kg/day for an additional week. The allantoin was mixed to the appropriate concentration in fruit juice and given to the monkeys to drink. For plasma analysis of allantoin venous blood was obtained from the right ventricle (rat) and collected from repeated blood draws (African green monkey). Blood was immediately centrifuged at 10,500 rpms (this needs to be in G) for 5 minutes. Supernatant was then removed and analyzed for allantoin. Enzymatic detection of allantoin was performed as previously described with the exception of reaction volumes being adjusted to accommodate the use of a 96 well microtiter plate (Muratsubaki et al., Enzymatic assay of allantoin in serum using allantoinase and allantoate amidohydrolase, Anal. Biochem. 359:161-166 (2006)). […] Following a 15 minute incubation, absorbance was read on a spectrometer at 340 nm. […] Following a 10 minute incubation absorbance was once again measured at 340 nm. The final absorbance was subtracted from the absorbance following the addition of allantoinase. […] Allantoin levels in plasma were determined utilizing the enzymatic detection assay. […]

[2] = test system: nigral THir neurons; experiment: Unbiased stereological counts of THir cells in the substantia nigra after striatal 6-OHDA; type: in vivo, Sprague Dawley rats; conditions: for number of surviving THir neurons in the lesioned SN relative to the intact side: s.c. pellets 3 days prior to intrastriatal 6-OHDA, 6 weeks post-6-OHDA (experiment 1); for protection of nigral THir neurons against striatal 6-OHDA infusion: s.c. pellets, 6 weeks post-6-OHDA, vs control
Description: Rats were anesthetized prior to surgery with Equi-Thesin (0.3 ml/100 g body weight i.p.; chloral hydrate 42.5 mg/ml+sodium pentobarbital 9.72 mg/ml), their heads shaved, and then they were placed in a stereotaxic frame. Their skin was swabbed with Betadyne followed by 70% ETOH. The scalp was then opened to expose the skull. Two 1 mm holes were drilled into the skull and rats were injected in two sites in the striatum with 6-OHDA (MP Biomedicals, Solon, Ohio; 5 μg/μl 6-OHDA in 0.2% ascorbic acid, 0.9% saline solution). The coordinates for these injections were AP −1.6 mm, ML +2.4 mm, DV −4.2 mm and AP −0.2 mm, +ML 2.6 mm, DV −7.0 mm. The needle was zeroed at the skull directly above the injection site in order to target the DV coordinate. For each injection, the needle was lowered slowly to the injection site and 1 minute elapsed before injection commenced, 6-OHDA was injected at 0.5 μl/minute and at the end of the injection the needle was held in place for an additional 2 minutes prior to retraction. The wound area was cleaned with Betadine solution and the scalp was closed with surgical wound clips. This lesion paradigm results in a progressive loss of TH phenotype and frank DA cell death.
Animals were deeply anesthetized (60 mg/kg, pentobarbital, i.p.) and perfused intracardially with warm 0.9% saline containing 1 ml/L 10,000 USP heparin followed by ice-cold 0.9% saline. For immunoshistochemistry brains were removed, post fixed for 24 hours in 4% paraformaldehyde and transferred to 30% sucrose in 0.1M PO4 buffer. For determination of purine levels brains were immediately removed and flash frozen in 3-methyl butane. Brains were stored at −80° C. until analysis.
Brains were frozen on dry ice and sectioned at a 40 μm thickness using a sliding microtome. Every sixth section through the SN was processed for labeling with antisera against TH. Following blocking in 10% normal goat serum, tissue was incubated in primary antisera directed against TH (Chemicon MAB318, mouse anti TH 1:4,000) overnight at room temperature. Following primary incubation, sections were incubated in biotinylated secondary antisera against mouse IgG (Chemicon AP124B, 1:400) followed by the Vector ABC detection kit employing horseradish peroxidase (Vector Laboratories, Burlingame, Calif.). Antibody labeling was visualized by exposure to 0.5 mg/ml 3,3′ diaminobenzidine (DAB) and 0.03% H2O2 in Tris buffer. Sections were mounted on subbed slides, dehydrated to xylene and coverslipped with Cytoseal (Richard-Allan Scientific, Waltham, Mass.).
Unbiased stereological counts of THir cells were performed using a BX52 Olympus microscope (Olympus America Inc.) interfaced with Microbrightfield stereological software and a Microfire CCD camera (Optronics, Goleta, Calif.). Utilizing 2 μm guard zones and a 50 μm×50 μm counting frame a grid size of 112 μm×183 μm was employed to assure that all coefficient of error values were ≦0.10. Using the optical fractionator principle, the regions of interest were individually outlined under a low magnification (1.25×). Using a 60× magnification lens with a 1.4 N/A the section thickness was empirically determined by first bringing the top of the section into focus and then using Microbrightfield software to step through the z-axis in 1 μm increments until the very bottom of the section was in focus. […]

[3] = test system: retinal ganglion cells; conditions: repeated i.p. every eight hours, optical nerve transection, adult rats; cited from earlier work
[4] = test system: cortex and hippocampus apoptosis; conditions: twice daily i.p., neonatal MCA occlusion; cited from earlier work

Row | SMILES | plasma allantoin levels ([1]; African green monkey, oral, after one week at 52 mg/kg/day (following 1 week at 26 mg/kg/day), vs baseline, trough) | negative health consequences ([1]; monkeys, oral allantoin 26 then 52 mg/kg/day, 1 week each) | number of surviving THir neurons in the lesioned SN relative to the intact side [2] | protection of nigral THir neurons against striatal 6-OHDA infusion [2] | sparing of retinal ganglion cells [3] | Cytochrome C expression in the cortex and hippocampus [4] | TUNEL staining in the cortex and hippocampus [4]
1 | NC(=O)NC1NC(=O)NC1=O (stereo not drawn) [allantoin] | tripling | Neither the rats nor the monkeys exhibited any obvious negative health consequences | 61%±7.9% | significantly protected |  |  | 
2 | OC[C@H]1O[C@@H](n2cnc3c(O)ncnc32)[C@H](O)[C@@H]1O [inosine] |  |  | 56%±9.0% | significantly protected | significant sparing | decreased | decreased
